Consider 16 compounds from patent US4532255A, “Amidine compounds and anticomplement agent comprising same” (Torii & Co., Ltd., priority 1980, dated 1985).

One test has as its target T1, C1r (Homo sapiens, UniProt P00736).
T1 sequence (P00736 464-705 limits assumed): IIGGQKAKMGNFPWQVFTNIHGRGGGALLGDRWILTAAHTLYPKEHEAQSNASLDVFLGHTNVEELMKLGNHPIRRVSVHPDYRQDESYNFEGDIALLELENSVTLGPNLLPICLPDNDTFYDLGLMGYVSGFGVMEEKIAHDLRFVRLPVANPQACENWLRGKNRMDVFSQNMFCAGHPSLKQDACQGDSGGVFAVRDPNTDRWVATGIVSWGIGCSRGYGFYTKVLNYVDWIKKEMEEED
T1 sequence (P00736 18-463 partner limits assumed): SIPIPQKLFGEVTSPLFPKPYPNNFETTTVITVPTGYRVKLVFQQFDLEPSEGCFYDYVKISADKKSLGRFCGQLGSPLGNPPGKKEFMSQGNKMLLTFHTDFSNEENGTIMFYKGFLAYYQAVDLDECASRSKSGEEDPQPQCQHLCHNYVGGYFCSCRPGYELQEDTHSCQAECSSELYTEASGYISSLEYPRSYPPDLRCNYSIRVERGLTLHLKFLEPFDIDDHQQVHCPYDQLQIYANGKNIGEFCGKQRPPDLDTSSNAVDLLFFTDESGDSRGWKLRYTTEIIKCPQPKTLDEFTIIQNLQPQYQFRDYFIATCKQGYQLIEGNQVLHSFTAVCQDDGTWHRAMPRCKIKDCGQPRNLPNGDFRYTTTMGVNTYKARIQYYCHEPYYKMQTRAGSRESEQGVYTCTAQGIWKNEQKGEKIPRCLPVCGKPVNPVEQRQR
Put plainly: Anti-C1 esterase (C1r) activity (hydrolysis of AAME). The format is biochemical. The following applies: for IC50: AAME hydrolysis, read-out: Anti-C1 activity, C1r ID50. The procedure:
The anti-Cl esterase ([…]) activity was determined according to the method of Okamura et al. [K. Okamura, M. Muramatsu and S. Fujii, Biochem. Biophys.

The test system of the next test is Kallikrein. Put plainly: Anti-kallikrein activity (hydrolysis of TAME). Format: biochemical. The following applies: molar concentration inhibiting 50% of TAME hydrolysis; read-out: Kallikrein ID50. The procedure: (§1) The anti-trypsin, anti-plasmin, anti-kallikrein and anti-thrombin activities were determined according to the method of Muramatsu et al. [M. Muramatsu, T. Onishi, S. Makino, Y. Hayashi and S. Fujii, J. of Biochem., 58, 214 (1965)]. The data summarized in Table 1 are expressed in terms of molar concentration (ID50) of the test compound which inhibits 50% of the activity of each enzyme to hydrolyze TAME (tosylalginine methyl ester). The compound No. corresponds to the compound number shown in Examples.

A further test concerns the target Thrombin (Homo sapiens, UniProt P00734). Put plainly: biochemical. As to conditions: for IC50: molar concentration inhibiting 50% of TAME hydrolysis, read-out: Thrombin ID50; for inhibition at 10 µM: at 1×10^-5 M, read-out: Thrombin percentage inhibition. The procedure: as §1
In a further test the target is T2, Trypsin (Bos taurus, UniProt P00760).
T2 sequence (P00760 24-246): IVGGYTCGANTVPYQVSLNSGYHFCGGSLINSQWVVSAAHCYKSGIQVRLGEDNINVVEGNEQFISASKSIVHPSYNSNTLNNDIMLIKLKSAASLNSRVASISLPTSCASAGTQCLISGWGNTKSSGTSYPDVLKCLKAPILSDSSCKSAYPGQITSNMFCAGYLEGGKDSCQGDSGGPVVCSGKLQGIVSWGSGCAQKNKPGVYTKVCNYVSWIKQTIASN
Put plainly: Anti-trypsin activity (hydrolysis of TAME). The format is biochemical. The following applies: for IC50: molar concentration inhibiting 50% of TAME hydrolysis, read-out: Trypsin ID50. The procedure: (§2) The anti-trypsin, anti-plasmin, anti-kallikrein and anti-thrombin activities were determined according to the method of Muramatsu et al. [M. Muramatsu, T. Onishi, S. Makino, Y. Hayashi and S. Fujii, J. of Biochem., 58, 214 (1965)]. […] The compound No. corresponds to the compound number shown in Examples.

A further test addresses Plasmin (Homo sapiens, UniProt P00747). Put plainly: Anti-plasmin activity (hydrolysis of TAME). The format is biochemical. As to conditions: molar concentration inhibiting 50% of TAME hydrolysis; read-out: Plasmin ID50. As to the method: as §2
In test [1] the test system is complement mediated hemolysis. Put plainly: Inhibition of complement mediated hemolysis. Format: cell-based.
Procedure: The principle of this method is based on the fact that hemolysis is caused by the activation of complement, when the latter is added to a complex (immune complex) of erythrocytes and the antibody thereof. The degree of hemolysis varies in proportion to the amount of complement added. Therefore, when a known amount of complement admixed with a C1 esterase inhibitor is used, the hemolysis must be suppressed in proportion to the inhibitory activity.
For a further test, the target named is T3, C1s (Homo sapiens, UniProt P09871).
T3 sequence (P09871 438-688 limits assumed): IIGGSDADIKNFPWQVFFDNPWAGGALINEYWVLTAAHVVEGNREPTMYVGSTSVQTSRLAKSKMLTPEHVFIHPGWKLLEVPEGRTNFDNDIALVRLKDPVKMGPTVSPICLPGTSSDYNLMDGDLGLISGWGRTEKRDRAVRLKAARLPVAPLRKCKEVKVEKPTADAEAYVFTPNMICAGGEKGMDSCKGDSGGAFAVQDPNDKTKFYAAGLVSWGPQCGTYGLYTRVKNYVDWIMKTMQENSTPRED
T3 sequence (P09871 16-437 partner limits assumed): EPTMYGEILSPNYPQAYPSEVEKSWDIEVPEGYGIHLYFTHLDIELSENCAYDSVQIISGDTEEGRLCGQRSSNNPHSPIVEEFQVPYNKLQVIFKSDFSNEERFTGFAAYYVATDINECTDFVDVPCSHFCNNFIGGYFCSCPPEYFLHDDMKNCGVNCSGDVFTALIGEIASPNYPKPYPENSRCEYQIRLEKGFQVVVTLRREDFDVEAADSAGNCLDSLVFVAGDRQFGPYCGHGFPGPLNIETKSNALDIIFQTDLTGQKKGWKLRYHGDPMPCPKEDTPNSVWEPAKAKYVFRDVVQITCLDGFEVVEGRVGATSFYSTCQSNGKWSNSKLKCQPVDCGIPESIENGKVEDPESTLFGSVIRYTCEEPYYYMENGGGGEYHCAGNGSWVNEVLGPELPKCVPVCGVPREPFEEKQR
Put plainly: biochemical. As to conditions: ATEE hydrolysis; read-out: Anti-C1 activity, C1s ID50. The procedure:
The anti-Cl esterase (Clr, Cls) activity was determined according to the method of Okamura et al. [K. Okamura, M. Muramatsu and S. Fujii, Biochem. Biophys. […] The figures in Table 2 have the following meanings:
Cls: Molar concentration of the test compound which inhibits 50% of the ability of Cls to hydrolyse ATEE (acetyltyrosin ethyl ester).

Sequence of Plasmin (P00747 581-810 limits assumed, species assumed): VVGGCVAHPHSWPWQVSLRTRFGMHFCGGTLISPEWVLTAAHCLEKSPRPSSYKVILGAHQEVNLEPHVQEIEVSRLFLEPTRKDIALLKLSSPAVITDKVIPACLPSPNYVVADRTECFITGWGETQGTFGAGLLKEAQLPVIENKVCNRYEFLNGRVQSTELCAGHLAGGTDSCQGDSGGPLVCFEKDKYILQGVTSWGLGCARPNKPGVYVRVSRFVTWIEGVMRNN
Sequence of Plasmin (P00747 97-580 partner limits assumed, species assumed): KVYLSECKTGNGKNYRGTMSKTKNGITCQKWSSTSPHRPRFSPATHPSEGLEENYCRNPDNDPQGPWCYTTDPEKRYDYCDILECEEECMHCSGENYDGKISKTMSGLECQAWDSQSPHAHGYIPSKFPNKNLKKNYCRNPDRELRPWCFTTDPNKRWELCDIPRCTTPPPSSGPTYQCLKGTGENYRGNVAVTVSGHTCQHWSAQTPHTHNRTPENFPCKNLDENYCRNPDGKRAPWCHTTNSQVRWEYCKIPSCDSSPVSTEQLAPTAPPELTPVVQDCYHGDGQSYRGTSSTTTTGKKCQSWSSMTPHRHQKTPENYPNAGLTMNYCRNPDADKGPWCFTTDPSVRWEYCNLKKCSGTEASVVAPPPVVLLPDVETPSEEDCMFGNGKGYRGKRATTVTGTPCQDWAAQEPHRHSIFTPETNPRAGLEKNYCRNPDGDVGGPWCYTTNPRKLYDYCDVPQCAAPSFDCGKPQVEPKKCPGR

On to `N=C(N)Nc1ccc(C=CC(=O)Oc2ccc3cc(C(=N)N)ccc3c2)cc1` [Compound 64, 6-amidino-2-naphthyl 4-guanidinocinnamate], for which the inhibition at 10 µM at C1r (at 1×10^-5 M, read-out: Anti-C1 activity, C1r percent inhibition) was 14%. Further, the IC50 in the test on Kallikrein was 4 µM; at Thrombin, greater than 10 µM; on Trypsin, 2000 nM; on Plasmin it was 10000 nM; at C1s, 3 µM. Further, the “Inhibition of complement mediated hemolysis (%)” value (“Inhibition … (%)” below) in test [1] (1 × 10^-5) was 39%; in test [1] (1 × 10^-6), 17%; in test [1] (1 × 10^-7), 19%.

On to `Cc1ccccc1C(=O)Oc1ccc2cc(C(=N)N)ccc2c1` [Compound 2, 6-amidino-2-naphthyl 2-methylbenzoate], for which the figures for the IC50 in the test with Kallikrein, at Thrombin and at Plasmin were greater than 10 µM, greater than 10 µM and greater than 10000 nM, respectively. Moreover, the inhibition at 10 µM on Trypsin (at 1×10^-5 M, read-out: Trypsin percentage inhibition) was 38%.

For the compound `N=C(N)c1ccc2cc(OC(=O)c3ccc(CNC(=O)OCc4ccccc4)cc3)ccc2c1` [Compound 21, 6-amidino-2-naphthyl 4-benzyloxycarbonylaminomethylbenzoate], the IC50 on C1r is 0.7 µM; in the test on Kallikrein, 10 µM; on Thrombin it was greater than 10 µM; on Trypsin it was 600 nM; at C1s, 0.5 µM. Besides, the “Inhibition … (%)” value is given as 0% in test [1] (1 × 10^-4), 66% in test [1] (1 × 10^-5), 14% in test [1] (1 × 10^-6) and 0% in test [1] (1 × 10^-7).

With `Cc1ccc(CCC(=O)Oc2ccc3cc(C(=N)N)ccc3c2)cc1` [Compound 48], the values for the IC50 with Kallikrein, on Trypsin and on Plasmin were greater than 10 µM, 5000 nM and 2000 nM, respectively. At Thrombin, the inhibition at 10 µM amounted to 43%.

With `N=C(N)c1ccc2cc(OC(=O)CCCc3ccccc3)ccc2c1` [Compound 54, 6-amidino-2-naphthyl 4-phenylbutyrate], the IC50 at C1r and at C1s was greater than 10 µM throughout. The “Inhibition … (%)” value in test [1] (1 × 10^-4) is 12%; in test [1] (1 × 10^-5), 10%; in test [1] (1 × 10^-6) it was 10%; in test [1] (1 × 10^-7) it was 4%.

For the compound `CC(=O)Oc1ccc(CCC(=O)Oc2ccc3cc(C(=N)N)ccc3c2)cc1` [Compound 50], the “Inhibition … (%)” value in test [1] (1 × 10^-4) is recorded as 49%; in test [1] (1 × 10^-5), 16%; in test [1] (1 × 10^-6), 1%; in test [1] (1 × 10^-7), 11%.

`N=C(N)c1ccc2cc(OC(=O)Cc3ccc(Cl)cc3)ccc2c1` [Compound 44]: the IC50 on C1r and on C1s was greater than 10 µM each time. Also, the “Inhibition … (%)” value in test [1] (1 × 10^-4) was found to be 89%; in test [1] (1 × 10^-5), 21%; in test [1] (1 × 10^-6), 0%; in test [1] (1 × 10^-7), 18%.

`N=C(N)c1ccc2cc(OC(=O)COc3ccc(Cl)cc3Cl)ccc2c1` [Compound 70]: the IC50 on C1r and on C1s was greater than 10 µM throughout. Also, the “Inhibition … (%)” value in test [1] (1 × 10^-4) is listed as 26%; in test [1] (1 × 10^-5), 1%; in test [1] (1 × 10^-6) it was 0%; in test [1] (1 × 10^-7), 2%.

Take `COC(=O)c1ccc(C(=O)Oc2ccc3cc(C(=N)N)ccc3c2)cc1` [Compound 14]: the IC50 on C1r was found to be 7 µM; on Thrombin it was 3 µM; at Trypsin, 300 nM; on Plasmin, 500 nM; on C1s, 6 µM. Besides, the “Inhibition … (%)” value in test [1] (1 × 10^-4) stood at 61%; in test [1] (1 × 10^-5) it was 15%; in test [1] (1 × 10^-6), 1%; in test [1] (1 × 10^-7), 3%.

For the compound `N=C(N)c1ccc2cc(OC(=O)C=Cc3ccc([N+](=O)[O-])cc3)ccc2c1` [Compound 62, 6-amidino-2-naphthyl 4-nitrocinnamate], the figures for the IC50 in the test with Kallikrein, on Trypsin and on Plasmin were greater than 10 µM, 3000 nM and 2000 nM, respectively. In addition, the inhibition at 10 µM at Thrombin was 24%.

Take `Cc1ccc(C=CC(=O)Oc2ccc3cc(C(=N)N)ccc3c2)cc1` [Compound 58]: the IC50 in the test on Kallikrein is greater than 10 µM; at Trypsin, 2000 nM; at Plasmin, 500 nM. Moreover, the inhibition at 10 µM on Thrombin is 22%.

`CC(C)(C)c1ccc(C(=O)Oc2ccc3cc(C(=N)N)ccc3c2)cc1` [Compound 5]: the IC50 in the test with Kallikrein was found to be 9 µM; at Thrombin, 3 µM; on Trypsin, 300 nM; at Plasmin it was 2000 nM.

As to `COc1ccc(C=CC(=O)Oc2ccc3cc(C(=N)N)ccc3c2)cc1OC` [Compound 59], the IC50 stood at 1 µM in the test on Kallikrein, 6 µM on Thrombin, 100 nM at Trypsin and 600 nM on Plasmin.

`CN(C)c1ccc(C(=O)Oc2ccc3cc(C(=N)N)ccc3c2)cc1` [Compound 24, 6-amidino-2-naphthyl 4-dimethylaminobenzoate]: the IC50 in the test with Kallikrein came to 50 µM; on Thrombin, 60 µM; on Trypsin, 300 nM; at Plasmin, 20000 nM.

With `CN(C)c1cccc(C(=O)Oc2ccc3cc(C(=N)N)ccc3c2)c1` [Compound 23, 6-amidino-2-naphthyl 3-dimethylaminobenzoate], the IC50 worked out at 100 µM with Kallikrein, 10 µM at Thrombin, 20000 nM on Trypsin and 20000 nM at Plasmin.

For `CC(=O)Nc1ccc(C(=O)Oc2ccc3cc(C(=N)N)ccc3c2)cc1` [Compound 25, 6-amidino-2-naphthyl 4-acetylaminobenzoate], the IC50 at C1r is 0.7 µM; with Kallikrein it was 100 µM; at Thrombin it was 60 µM; on C1s it was 0.4 µM. Further, the “Inhibition … (%)” value in test [1] (1 × 10^-4) stood at 64%; in test [1] (1 × 10^-5) it was 26%; in test [1] (1 × 10^-6), 1%; in test [1] (1 × 10^-7), 0%.
